Measured values reported in PubChem BioAssay (NCI).
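Exposure lasted 48 hours, with cells grown in 96-well plates and compounds tested at five concentrations. TGI is the concentration that stops growth completely.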

What was measured:
Assay in all cases: growth of human tumour cells (NCI), 48 h
NCI/ADR-RES ovarian = system: NCI/ADR-RES ovarian
ACHN renal = system: ACHN renal
SR leukemia = system: SR leukemia
NCI-H23 lung = system: NCI-H23 lung
SNB-19 CNS = system: SNB-19 CNS
PC-3 prostate = system: PC-3 prostate
MDA-MB-231 breast = system: MDA-MB-231 breast
DU-145 prostate = system: DU-145 prostate
T-47D breast = system: T-47D breast
HS 578T breast = system: HS 578T breast
SK-OV-3 ovarian = system: SK-OV-3 ovarian
DMS 273 small cell lung = system: DMS 273 small cell lung
KM20L2 colon = system: KM20L2 colon
DMS 114 small cell lung = system: DMS 114 small cell lung
SK-MEL-5 melanoma = system: SK-MEL-5 melanoma
M19-MEL melanoma = system: M19-MEL melanoma
SN12C renal = system: SN12C renal
HCC-2998 colon = system: HCC-2998 colon
SNB-78 CNS = system: SNB-78 CNS
XF 498 CNS = system: XF 498 CNS

SMILES | TGI (NCI/ADR-RES ovarian) [µM] | TGI (ACHN renal) [µM] | TGI (SR leukemia) [µM] | TGI (NCI-H23 lung) [µM] | TGI (SNB-19 CNS) [µM] | TGI (PC-3 prostate) [µM] | TGI (MDA-MB-231 breast) [µM] | TGI (DU-145 prostate) [µM] | TGI (T-47D breast) [µM] | TGI (HS 578T breast) [µM] | TGI (SK-OV-3 ovarian) [µM] | TGI (DMS 273 small cell lung) [µM] | TGI (KM20L2 colon) [µM] | TGI (DMS 114 small cell lung) [µM] | TGI (SK-MEL-5 melanoma) [µM] | TGI (M19-MEL melanoma) [µM] | TGI (SN12C renal) [µM] | TGI (HCC-2998 colon) [µM] | TGI (SNB-78 CNS) [µM] | TGI (XF 498 CNS) [µM]
CC(C)(C)c1cc(C2NC(=O)NC2=O)cc(C(C)(C)C)c1O (stereo not drawn) | > 100 | > 100 | > 100 | > 100 | > 100 | > 100 | > 100 | > 100 | > 100 | 69.8 | > 100 |  |  |  |  |  |  |  |  | 
CC(=O)OC1C(O)C(C)OC(OC(=O)C2CCC3C(C2)OC2(CC(OC(=O)/C=C/c4ccccc4)C(C)CO2)C32CO2)C1OC1OC(C)C(O)C(O)C1O (stereo not drawn) | 146 |  |  | 0.22 | 0.0909 |  |  |  |  |  | 0.213 | 0.151 | 1.42 | 0.0563 | 0.0897 | 0.0497 | 0.833 | 0.0881 | 0.104 | 0.126
COc1cc(-c2coc3c(OC)c(OC4OC(COC5OC(C)C(O)C(O)C5O)C(O)C(O)C4O)c(OC)c(O)c3c2=O)cc(C)c1O (stereo not drawn) | 52.5 | 52.9 |  | 32.4 | 30.3 | 74.1 | > 100 | 52.7 | 61.4 | 62.1 | 60.3 |  |  |  | 26.5 |  |  | 39.2 |  | 
O=c1cc2cc(O)[nH]c(=O)c2c(O)[nH]1 |  |  | > 100 | > 100 | > 100 |  |  |  |  |  | > 100 | > 100 | > 100 | > 100 | > 100 | > 100 | > 100 |  | > 100 | > 100
